Assay results taken from patent US4824936A, “(19-Alanine) calcitonin” (Rorer Pharmaceutical Corporation, priority 1987, dated 1989).
Bridge positions count the residues as written; N and C are the ends. Peptide text beside a SMILES is read from it.

Columns and labels:
[1] = literature values; cited from earlier work
[2] = tested on: serum calcium concentration
Method: Biological Assay of Calcitonin Analogs in Vivo
Rats were divided into four groups of seven animals, and each group was assigned at random to a dose of standard or test solution. Low and high doses were chosen from the linear portion of the dose-response curve. For the salmon calcitonin standard, the values were 0.7 and 2.1 mcg. peptide/100 g. body weight (BW). This dose approximates 3 and 9 MU/100 g. […] Peptides were given by subcutaneous injection (0.2 ml/100 g. BW) and blood was withdrawn 1 hour later for serum calcium determination. Sera are processed and analyzed within two hours of collection.

Row | Compound | hypocalcemic potency [1] | further results
1 | (1,7-alpha-L-amino-suberic acid) eel calcitonin | about 3400 IU/mg | 
2 | eel calcitonin [synthetic eel calcitonin] | around 4300 IU/mg | 
3 | CC(C)C[C@H](NC(=O)[C@H](CCCCN)NC(=O)CNC(=O)[C@H](CC(C)C)NC(=O)[C@@H](NC(=O)[C@@H]1CSSC[C@H](N)C(=O)N[C@@H](CO)C(=O)N[C@@H](CC(N)=O)C(=O)N[C@@H](CC(C)C)C(=O)N[C@@H](CO)C(=O)N[C@@H]([C@@H](C)O)C(=O)N1)C(C)C)C(=O)N[C@@H](CO)C(=O)N[C@@H](CCC(N)=O)C(=O)N[C@@H](CCC(=O)O)C(=O)N[C@@H](CC(C)C)C(=O)N[C@@H](Cc1c[nH]cn1)C(=O)N[C@@H](CCCCN)C(=O)N[C@@H](CC(C)C)C(=O)N[C@@H](CCC(N)=O)C(=O)N[C@H](C(=O)N[C@@H](Cc1ccc(O)cc1)C(=O)N1CCC[C@H]1C(=O)N[C@@H](CCCNC(=N)N)C(=O)N[C@H](C(=O)N[C@@H](CC(N)=O)C(=O)N[C@H](C(=O)NCC(=O)N[C@@H](CO)C(=O)NCC(=O)N[C@H](C(=O)N1CCC[C@H]1C(N)=O)[C@@H](C)O)[C@@H](C)O)[C@@H](C)O)[C@@H](C)O [standard salmon calcitonin, Salmon calcitonin] |  | biological potency of the standard, independently determined ([2]; standard used in the assay, independently determined): greater than 4,000 IU/mg
4 | CC(C)C[C@H](NC(=O)[C@H](CCCCN)NC(=O)CNC(=O)[C@H](CC(C)C)NC(=O)[C@@H](NC(=O)[C@@H]1CSSC[C@H](N)C(=O)N[C@@H](CO)C(=O)N[C@@H](CC(N)=O)C(=O)N[C@@H](CC(C)C)C(=O)N[C@@H](CO)C(=O)N[C@@H]([C@@H](C)O)C(=O)N1)C(C)C)C(=O)N[C@@H](CO)C(=O)N[C@@H](CCC(N)=O)C(=O)N[C@@H](CCC(=O)O)C(=O)N[C@@H](CC(C)C)C(=O)N[C@@H](Cc1c[nH]cn1)C(=O)N[C@@H](CCCCN)C(=O)N[C@@H](C)C(=O)N[C@@H](CCC(N)=O)C(=O)N[C@H](C(=O)N[C@@H](Cc1ccc(O)cc1)C(=O)N1CCC[C@H]1C(=O)N[C@@H](CCCNC(=N)N)C(=O)N[C@H](C(=O)N[C@@H](CC(N)=O)C(=O)N[C@H](C(=O)NCC(=O)N[C@@H](CO)C(=O)NCC(=O)N[C@H](C(=O)N1CCC[C@H]1C(N)=O)[C@@H](C)O)[C@@H](C)O)[C@@H](C)O)[C@@H](C)O [[Ala^19]SCT, [19-Alanine] salmon calcitonin] (H-CSNLSTCVLGKLSQELHKAQTYPRTNTGSGTP-NH2; disulfide 1-7) |  | biological potency ([2]; rat, in vivo, sc): 5400 IU/mg
